# Laboratory results from patent publication US6855730B2, “3-methylidenyl-2-indolinone modulators of protein kinase” (Sugen, Inc., priority 1998, dated 2005).
# Legend:
# pyk2 = pyk2 (Homo sapiens, UniProt Q14289); assay: bio pyk2 assay; format: biochemical
# flkGST = target: T1, flkGST (Homo sapiens, UniProt P35968); assay: bio flkGST assay; format: biochemical
# T1 construct: GST
# [1] = target: Myc-GyrB-FGFR fusion protein (Homo sapiens, UniProt P11362); assay: Biochemical FGFR assay (ELISA); conditions: read-out: bio fgfR1 IC50
# PDGFR-β = target: T2, PDGFR-β (Homo sapiens, UniProt P09619); assay: Biochemical PDGFR assay (ELISA, PDGFR-β expressing NIH 3T3 cell lysate); conditions: read-out: bio PDGF IC50
# T2 construct: host or cells: NIH 3T3
# In short: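 PDGFR-β from NIH 3T3 cell lysate captured on anti-PDGFR (28D4C10)-coated plates; compound preincubated 30 min, then 20 μM ATP kinase reaction 30 min at room temperature, stopped with EDTA. Phosphotyrosine detected by anti-phosphotyrosine antibody, peroxidase conjugate and ABTS/H2O2, read at 410 nm.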
# EGFR = EGFR (Homo sapiens, UniProt P00533); assay: Biochemical EGFR assay (ELISA, A431 cell lysate); parameters: A431 cell lysate (Screening Lab, SUGEN, Inc.); host or cells: A431; conditions: read-out: bio EGFr IC50
# Procedure: This assay measures the in vitro kinase activity of EGFR using ELISA.
# Materials and Reagents • 1. […] SUMO1 monoclonal anti-EGFR antibody (Biochemistry Lab, SUGEN, Inc.). • 3. PBS (Dulbecco's Phosphate-Buffered Saline, Gibco Catalog No. 450-1300EB). • 4. TBST Buffer
# • 6. A431 cell lysate (Screening Lab, SUGEN, Inc.) • 7. TBS Buffer:
# Prepare a 1.0 mM solution in dH2O. This reagent should be made up immediately prior to use and kept on ice. • 10. MnCl2.
# Prepare a 1.0 M stock solution in dH2O. • 11. ATP/MnCl2 phosphorylation mix
# This reagent should be prepared immediately before use and kept on ice. • 12. NUNC 96-well V bottom polypropylene plates (Applied Scientific Cat. No. AS-72092). • 13. Ethylenediaminetetraacetic acid (EDTA)
# Prepare 200 mM working solution in dH2O. Adjust to pH 8.0 with 10 N NaOH. • 14. Rabbit polyclonal anti-phosphotyrosine serum (Biochemistry Lab, SUGEN, Inc.) • 15. Goat anti-rabbit IgG peroxidase conjugate (Biosource Cat. No. ALI0404) • 16. ABTS (2,2′-azino-bis(3-ethylbenzthiazoline-6-sulfonic acid), Sigma Cat. No. A-1888).
# Mix first two ingredients in about 900 ml dH2O, adjust pH to 4.0 with phosphoric acid. Add ABTS, cover, let sit about 0.5 hr., filter. The solution should be kept in the dark at 4° C. until ready to use. • 17. Hydrogen peroxide 30% solution (Fisher Cat. No. H325) • 18. ABTS/H2O2 • Mix 15 ml ABTS solution and 2.0 μl H2O2. Prepare 5 minutes before use. • 19. 0.2 M HCl
# Procedure • 1. Coat Corning 96 well ELISA plates with 0.5 μg SUMO1 in 100 μl PBS per well, store overnight at 4° C. • 2. Remove unbound SUMO1 from wells by inverting plate to remove liquid., Wash 1× with dH2O. Pat the plate on a paper towel to remove excess liquid. • 3. Add 150 μl of Blocking Buffer to each well. Incubate for 30 min. at room temperature with shaking. • 4. Wash plate 3× with deionized water, then once with TBST. Pat plate on a paper towel to remove excess liquid and bubbles. • 5. Dilute lysate in PBS (7 μg lysate/100 μl PBS). • 6. Add 100 μl of diluted lysate to each well. Shake at room temperature for 60 min. • 7. Wash plates as described in 4, above. • 8. Add 120 μl TBS to ELISA plate containing captured EGFR. • 9. Dilute test compound 1:10 in TBS in 96-well polypropylene plates (i.e. 10 μl compound+90 μl TBS). • 10. Add 13.5 μl diluted test compound to ELISA plate. […] Incubate for 30 minutes while shaking at room temperature. • 12. […] After 5 minutes, stop reaction by adding 16.5 μl of 200 mM EDTA (pH 8.0) to each well, shaking continuously. After the EDTA has been added, shake for 1 min. • 14. Wash 4× with deionized water, twice with TBST. • 15. Add 100 μl anti-phosphotyrosine (1:3000 dilution in TBST) per well. Incubate 30-45 min. at room temperature, with shaking. • 16. Wash as described in 4, above. • 17. Add 100 μl Biosource Goat anti-rabbit IgG peroxidase conjugate (1:2000 dilution in TBST) to each well. Incubate 30 min. at room temperature, with shaking. • 18. Wash as described in 4, above. • 19. Add 100 μl of ABTS/H2O2 solution to each well. • 20. Incubate 5 to 10 minutes with shaking. Remove any bubbles. • 21. If necessary stop reaction with the addition of 100 μl 1 0.2 M HCl per well. • 22. Read assay on Dynatech MR7000 ELISA reader. Test Filter: 410 nM Reference Filter: 630 Nm.
# T2 sequence (P09619 33-1106): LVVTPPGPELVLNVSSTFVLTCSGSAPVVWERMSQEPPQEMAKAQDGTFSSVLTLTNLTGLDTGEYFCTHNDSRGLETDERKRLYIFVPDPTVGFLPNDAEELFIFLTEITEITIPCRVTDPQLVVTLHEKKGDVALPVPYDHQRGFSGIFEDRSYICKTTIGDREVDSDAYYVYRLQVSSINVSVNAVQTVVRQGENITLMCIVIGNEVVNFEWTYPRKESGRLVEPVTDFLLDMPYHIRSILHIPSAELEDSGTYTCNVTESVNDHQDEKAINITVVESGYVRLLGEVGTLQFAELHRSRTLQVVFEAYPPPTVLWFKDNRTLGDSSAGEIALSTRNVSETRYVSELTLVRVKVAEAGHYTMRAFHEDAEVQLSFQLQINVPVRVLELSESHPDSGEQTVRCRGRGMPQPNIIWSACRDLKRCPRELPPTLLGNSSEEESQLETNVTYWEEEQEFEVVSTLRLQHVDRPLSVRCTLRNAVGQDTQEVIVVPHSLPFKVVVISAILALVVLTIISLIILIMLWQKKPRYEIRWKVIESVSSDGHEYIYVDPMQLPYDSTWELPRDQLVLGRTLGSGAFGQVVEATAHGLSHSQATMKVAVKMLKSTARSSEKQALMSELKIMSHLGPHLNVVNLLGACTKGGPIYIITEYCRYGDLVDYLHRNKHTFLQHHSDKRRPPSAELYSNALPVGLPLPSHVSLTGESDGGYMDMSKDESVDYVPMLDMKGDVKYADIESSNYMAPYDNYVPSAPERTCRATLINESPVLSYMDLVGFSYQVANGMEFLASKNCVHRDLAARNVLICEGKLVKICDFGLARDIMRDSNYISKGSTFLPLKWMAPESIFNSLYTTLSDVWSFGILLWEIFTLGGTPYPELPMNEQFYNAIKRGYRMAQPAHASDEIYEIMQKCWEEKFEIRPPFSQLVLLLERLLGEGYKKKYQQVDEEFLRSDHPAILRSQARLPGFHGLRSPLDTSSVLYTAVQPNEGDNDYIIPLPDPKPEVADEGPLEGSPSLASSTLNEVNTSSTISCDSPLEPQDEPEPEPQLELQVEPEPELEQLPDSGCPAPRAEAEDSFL
# Chain of pyk2 (Q14289 whole entry, species assumed): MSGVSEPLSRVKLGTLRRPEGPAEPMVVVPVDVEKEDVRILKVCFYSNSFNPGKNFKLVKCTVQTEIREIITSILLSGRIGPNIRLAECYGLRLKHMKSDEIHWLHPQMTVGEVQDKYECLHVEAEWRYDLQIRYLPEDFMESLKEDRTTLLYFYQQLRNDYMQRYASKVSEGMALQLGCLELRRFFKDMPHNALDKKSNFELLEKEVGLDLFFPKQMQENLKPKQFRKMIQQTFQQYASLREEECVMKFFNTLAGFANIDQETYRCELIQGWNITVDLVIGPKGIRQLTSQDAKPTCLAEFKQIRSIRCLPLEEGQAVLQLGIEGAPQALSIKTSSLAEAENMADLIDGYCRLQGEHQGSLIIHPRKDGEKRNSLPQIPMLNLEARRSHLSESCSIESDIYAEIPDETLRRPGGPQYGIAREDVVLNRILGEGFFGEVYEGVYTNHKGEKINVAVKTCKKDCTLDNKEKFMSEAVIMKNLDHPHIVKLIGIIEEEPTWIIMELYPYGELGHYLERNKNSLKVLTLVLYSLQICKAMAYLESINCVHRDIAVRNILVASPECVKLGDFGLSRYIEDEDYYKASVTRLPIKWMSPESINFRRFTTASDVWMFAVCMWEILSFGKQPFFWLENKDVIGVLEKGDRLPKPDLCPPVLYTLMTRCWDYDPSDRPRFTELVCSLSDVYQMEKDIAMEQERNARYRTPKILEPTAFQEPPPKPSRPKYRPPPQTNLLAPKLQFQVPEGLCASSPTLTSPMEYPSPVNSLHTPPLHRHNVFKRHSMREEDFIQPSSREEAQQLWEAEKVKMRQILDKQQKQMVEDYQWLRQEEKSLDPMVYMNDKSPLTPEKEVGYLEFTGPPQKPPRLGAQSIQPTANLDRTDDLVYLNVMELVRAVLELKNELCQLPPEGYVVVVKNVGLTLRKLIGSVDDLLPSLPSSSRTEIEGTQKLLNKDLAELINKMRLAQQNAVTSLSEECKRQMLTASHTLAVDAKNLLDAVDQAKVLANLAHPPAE
# T1 sequence (P35968 786-1356 limits assumed): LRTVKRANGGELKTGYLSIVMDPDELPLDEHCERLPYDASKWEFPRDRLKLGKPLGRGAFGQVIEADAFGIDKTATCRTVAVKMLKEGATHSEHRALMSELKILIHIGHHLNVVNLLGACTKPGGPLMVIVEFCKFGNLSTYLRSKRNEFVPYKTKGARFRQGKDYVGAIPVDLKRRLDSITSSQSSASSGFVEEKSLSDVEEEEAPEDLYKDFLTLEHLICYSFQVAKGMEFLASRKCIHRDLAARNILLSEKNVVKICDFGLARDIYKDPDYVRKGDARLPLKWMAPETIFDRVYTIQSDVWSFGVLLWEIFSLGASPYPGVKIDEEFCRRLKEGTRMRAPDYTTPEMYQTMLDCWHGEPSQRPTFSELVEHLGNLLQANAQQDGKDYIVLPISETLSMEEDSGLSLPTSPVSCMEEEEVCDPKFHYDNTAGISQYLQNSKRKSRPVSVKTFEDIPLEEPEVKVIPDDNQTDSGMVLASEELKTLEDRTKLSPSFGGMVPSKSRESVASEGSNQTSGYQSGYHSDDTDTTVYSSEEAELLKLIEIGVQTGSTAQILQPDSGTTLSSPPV
# Chain of Myc-GyrB-FGFR fusion protein (P11362 478-767 limits assumed): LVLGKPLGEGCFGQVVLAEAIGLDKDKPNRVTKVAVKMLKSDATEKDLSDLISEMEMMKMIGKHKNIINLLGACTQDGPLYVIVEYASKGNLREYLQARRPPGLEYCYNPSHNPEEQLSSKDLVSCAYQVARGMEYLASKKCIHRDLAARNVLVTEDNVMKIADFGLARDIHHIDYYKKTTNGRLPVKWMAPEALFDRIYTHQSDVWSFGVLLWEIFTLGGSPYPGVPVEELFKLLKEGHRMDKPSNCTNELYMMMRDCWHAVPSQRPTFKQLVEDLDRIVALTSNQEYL
# Chain of EGFR (P00533 25-1210): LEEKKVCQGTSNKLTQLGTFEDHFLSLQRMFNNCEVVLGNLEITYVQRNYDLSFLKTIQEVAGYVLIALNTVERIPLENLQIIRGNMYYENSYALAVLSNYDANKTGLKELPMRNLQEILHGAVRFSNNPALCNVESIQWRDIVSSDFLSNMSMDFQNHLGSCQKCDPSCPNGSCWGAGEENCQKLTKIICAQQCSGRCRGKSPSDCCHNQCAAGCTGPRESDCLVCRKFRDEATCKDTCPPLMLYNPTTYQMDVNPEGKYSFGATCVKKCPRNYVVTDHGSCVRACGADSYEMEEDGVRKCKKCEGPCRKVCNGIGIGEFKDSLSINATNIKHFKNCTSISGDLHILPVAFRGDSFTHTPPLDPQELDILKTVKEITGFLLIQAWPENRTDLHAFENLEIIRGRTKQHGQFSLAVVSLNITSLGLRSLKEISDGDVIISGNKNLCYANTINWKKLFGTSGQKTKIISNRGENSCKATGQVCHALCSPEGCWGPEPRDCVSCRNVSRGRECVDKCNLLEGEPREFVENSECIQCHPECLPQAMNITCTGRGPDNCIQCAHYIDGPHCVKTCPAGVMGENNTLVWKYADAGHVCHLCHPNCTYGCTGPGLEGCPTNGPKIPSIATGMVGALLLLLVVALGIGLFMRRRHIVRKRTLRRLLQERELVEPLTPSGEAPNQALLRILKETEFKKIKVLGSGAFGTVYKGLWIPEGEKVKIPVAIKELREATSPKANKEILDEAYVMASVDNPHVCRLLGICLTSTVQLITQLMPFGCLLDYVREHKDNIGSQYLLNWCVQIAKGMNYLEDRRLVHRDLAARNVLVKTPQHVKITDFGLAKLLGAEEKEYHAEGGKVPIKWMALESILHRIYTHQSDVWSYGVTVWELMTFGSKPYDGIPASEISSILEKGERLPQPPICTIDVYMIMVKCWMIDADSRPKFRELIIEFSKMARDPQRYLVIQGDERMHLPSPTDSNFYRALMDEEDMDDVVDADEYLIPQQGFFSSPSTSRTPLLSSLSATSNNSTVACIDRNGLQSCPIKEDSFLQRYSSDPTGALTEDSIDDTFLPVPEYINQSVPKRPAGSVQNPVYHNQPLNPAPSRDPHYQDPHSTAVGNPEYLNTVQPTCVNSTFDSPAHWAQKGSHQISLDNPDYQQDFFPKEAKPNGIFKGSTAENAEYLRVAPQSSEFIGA
IC50 (pyk2) [µM],IC50 (flkGST) [µM],IC50 [1] [µM],IC50 (PDGFR-β) [µM],IC50 (EGFR) [µM],SMILES
> 100,12.5,5.74,> 100,,"CNS(=O)(=O)c1ccc2c(c1)/C(=C/c1c(C)[nH]c3ccccc13)C(=O)N2 [Compound 181, 3-(2-Methyl-1H-indol-3-ylmethylene)-2-oxo-2,3-dihydro-1H-indole 5-sulfonic acid methylamide]"
4.21,13.9,,33.9,,"CCOC(=O)c1c(C)[nH]c(/C=C2\C(=O)Nc3ccc(S(N)(=O)=O)cc32)c1CCCN1CCN(C)CC1 [Example 124, 2-Methyl-4-[3-(4-methylpiperazin-1-yl)-propyl]-5-(2-oxo-5-sulfamoyl-1,2-dihydroindol-3ylidenemethyl)-1H-pyrrole-3-carboxylic acid ethyl ester]"
2.77,0.56,,27,,"CCOC(=O)c1c(C)[nH]c(/C=C2\C(=O)Nc3cccc(CCO)c32)c1CCCN1CCN(C)CC1 [Example 136, 5-[4-(2-Hydroxyethyl)-2-oxo-1,2-dihydroindol-3-ylidenemethyl]-2-methyl-4-[3-(4methylpiperazin-1-yl)-propyl]-1H-pyrrole-3-carboxylic acid ethyl ester]"
> 10,7.54,,6.17,> 100,CCOC(=O)c1c(C)[nH]c(/C=C2\C(=O)Nc3ccc(S(=O)(=O)NC)cc32)c1CCCN(C)C [Example 137]
2.18,17.6,,26.2,> 100,"CNS(=O)(=O)c1ccc2c(c1)/C(=C/c1[nH]c(C)c(C(=O)O)c1CCCN(C)C)C(=O)N2 [Example 138, 4-(3-Dimethylaminopropyl)-2-methyl-5-(5-methylsulfamoyl-2-oxo-1,2-dihydroindol-3-ylidenemethyl)-1H-pyrrole-3-carboxylic acid]"
5.02,2.66,0.77,5.26,,"CNS(=O)(=O)c1ccc2c(c1)/C(=C/c1[nH]c3ccccc3c1CCCN(C)C)C(=O)N2 [Example 149, 3-[3-(3-Dimethylaminopropyl)-1H-indol-2-ylmethylene]-2-oxo-2,3-dihydro-1H-indole-5-sulfonic acid methylamide]"
0.01,0.2,,0.34,,"CN(C)CCCc1c(/C=C2\C(=O)Nc3cccc(CCO)c32)[nH]c2ccccc12 [Example 150, 3-[3-(3-Dimethylaminopropyl)-1H-indol-2-ylmethylene]-4-(2-hydroxyethyl)-1,3-dihydroindol-2-one]"
12.3,0.26,> 20,18,,"CC(=O)c1ccc2c(c1)C(=Cc1cc3ccccc3[nH]1)C(=O)N2 [Example 158, 5-Acetyl-3-(1H-indol-2-ylmethylene)-1,3-dihydro-indol-2-one]"
5.53,1.51,0.73,55.4,,"Cc1c(/C=C2\C(=O)Nc3ccc(S(N)(=O)=O)cc32)[nH]c2ccccc12 [Example 175, 3-(3-Methyl-1H-indol-2-ylmethylene)-2-oxo-2,3-dihydro-1H-indole-5-sulfonic acid amide]"
66.1,2.08,0.75,79.2,,"CNS(=O)(=O)c1ccc2c(c1)/C(=C/c1ccc3[nH]ccc3c1)C(=O)N2 [Example 176, 3-(1H-Indol-5-ylmethylene)-2-oxo-2,3-dihydro-1H-indole-5-sulfonic acid methylamide]"
57.1,> 20,3.23,> 100,,"CNS(=O)(=O)c1ccc2c(c1)/C(=C/c1c[nH]c3ccccc13)C(=O)N2 [Example 178, 3-(1H-Indol-3-ylmethylene)-2-oxo-2,3-dihydro-1H-indole-5-sulfonic acid methylamide]"
> 100,1.55,7.68,> 100,,"CN(C)S(=O)(=O)c1ccc2c(c1)/C(=C/c1ccc3[nH]ccc3c1)C(=O)N2 [Example 183, 3-(1H-Indol-5-ylmethylene)-2-oxo-2,3-dihydro-1H-indole-5-sulfonic acid dimethylamide]"
> 100,> 20,8.6,> 100,,"Cc1[nH]c2ccccc2c1/C=C1\C(=O)Nc2ccc(S(=O)(=O)N(C)C)cc21 [Example 184, 3-(2-Methyl-1H-indol-3-ylmethylene)-2-oxo-2,3-dihydro-1H-indole-5-sulfonic acid dimethylamide]"
> 100,3.39,9.43,> 100,,"NS(=O)(=O)c1ccc2c(c1)/C(=C/c1ccc3[nH]ccc3c1)C(=O)N2 [Example 185, 3-(1H-Indol-5-ylmethylene)-2-oxo-2,3-dihydro-1H-indole-5-sulfonic acid amide]"
> 100,6.12,10.4,> 100,,"CN(C)S(=O)(=O)c1ccc2c(c1)/C(=C/c1cc3ccccc3[nH]1)C(=O)N2 [Example 186, 3-(1H-Indol-2-ylmethylene)-2-oxo-2,3-dihydro-1H-indole-5-sulfonic acid dimethylamide]"
66.4,> 20,17.5,> 100,,"CN(C)S(=O)(=O)c1ccc2c(c1)/C(=C/c1c[nH]c3ccccc13)C(=O)N2 [Example 188, 3-(1H-Indol-3-ylmethylene)-2-oxo-2,3-dihydro-1H-indole-5-sulfonic acid dimethylamide]"
> 100,> 20,> 20,> 100,,"Cc1[nH]c2ccccc2c1/C=C1\C(=O)Nc2ccc(S(N)(=O)=O)cc21 [Example 189, 3-(2-Methyl-1H-indol-3-ylmethylene)-2-oxo-2,3-dihydro-1H-indole-5-sulfonic acid amide]"
